Earlier results as cited in US20140243418A1, “RASAGILINE FOR PARKINSON'S DISEASE MODIFICATION” (Teva Pharmaceutical Industries, Ltd., priority 2008, published 2014).

Columns and labels:
[1] = tested on: Parkinson's disease; conditions: three doses tested; time to need for levodopa as primary endpoint; cited from earlier work
[2] = target: T1, Type-B Monoamine Oxidase (MAO-B) (Homo sapiens, UniProt P27338); conditions: cited from earlier work
T1 sequence (P27338 1-520): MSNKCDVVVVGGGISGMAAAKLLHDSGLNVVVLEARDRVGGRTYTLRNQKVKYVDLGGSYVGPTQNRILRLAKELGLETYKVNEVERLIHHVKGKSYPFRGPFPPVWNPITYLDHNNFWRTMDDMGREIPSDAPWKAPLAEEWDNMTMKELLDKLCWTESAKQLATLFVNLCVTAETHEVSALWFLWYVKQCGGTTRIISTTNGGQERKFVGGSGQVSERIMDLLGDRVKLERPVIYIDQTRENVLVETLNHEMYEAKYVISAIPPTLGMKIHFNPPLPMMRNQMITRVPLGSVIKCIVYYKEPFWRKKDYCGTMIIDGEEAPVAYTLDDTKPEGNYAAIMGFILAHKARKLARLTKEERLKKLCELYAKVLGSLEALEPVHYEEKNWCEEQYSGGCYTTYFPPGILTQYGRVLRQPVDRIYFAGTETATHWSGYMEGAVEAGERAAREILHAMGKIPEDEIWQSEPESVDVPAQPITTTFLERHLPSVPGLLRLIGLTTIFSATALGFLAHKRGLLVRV

[3] = tested on: Parkinson's disease; conditions: 12 months of treatment and 2 months of drug wash-out; vs placebo; cited from earlier work

SMILES	effect on primary or secondary endpoints [1]	inhibition of Type-B Monoamine Oxidase (MAO-B) [2]	deterioration from baseline in UPDRS motor score [3]
C#CCN(C)CC1=Cc2ccccc2Oc2ccccc21.O=C(O)/C=C\C(=O)O [TCH346]	did not demonstrate a positive effect	did not inhibit	–
C#CCN(C)[C@H](C)Cc1ccccc1 [selegiline]	–	–	less deterioration from baseline than patients treated with placebo
